The conditions of series [1]: cited from earlier work.
The nature of series [2]: Doxorubicin remote loading encapsulation efficiency and short stability. The following applies: for Encapsulation % (T0): doxorubicin. In kind it is physicochemical. On the procedure:
In this stage the efficiency of remote loading encapsulation and encapsulation stability were studied. Liposomes were prepared as described above. […] All formulations were made from HSPC:Cholesterol:PEG-DSPE mole ratio of 54.5:41:4.5, briefly the lipids were hydrated and suspended in the various ammonium ions to form MLV. The MLV were downsized by extrusion followed by dialysis to remove external ammonium salt and form the gradient, finally drug was remote loaded into the gradient liposomes.

Series [3] can be described thus: Doxorubicin accelerated chemical stability in ammonium-anion salt solutions. The note with it: 4 hours at 70° C.; for Additional peaks: HPLC. In kind it is physicochemical. On the procedure:
For accelerated stability the, chemical stability of doxorubicin in various ammonium-anions salts solutions was tested. Briefly, doxorubicin (2 mg/ml) was dissolved in various ammonium-anions salt solutions and incubated for 4 hours at the temperature of 70° C. At the end of 4 hours incubation doxorubicin concentration and the presence of doxorubicin degradation products were analyzed by HPLC using Agilent 1100 according to following protocol: Mobile phase: 50% MeOH, 40% phosphate buffer, pH=4, 10% Acetonitrile and 2% TEA Column: Phenomenex, Luna, C-18, Flow: 1 ml/min, detection wavelength 254 and 480 nm.

Series [4] in a line: Topotecan remote loading encapsulation efficiency. In kind it is physicochemical. The following applies: 4 days storage at 5° C. How it is done: Remote loading of topotecan were performed in the same way as the experiments described in Table 4 and Table 5 below for doxorubicin remote loading except that the drug concentration was determined from its absorbance at a wave length of 370 nm (which is the wavelength of maximum absorbance of topotecan).

Setting [5] is: counter anion 500 mM, salt pH 5.5.
Where [6] appears, read: counter anion 500 mM, salt pH 6.2.
[7] abbreviates: counter anion 250 mM, salt pH 5.5.
Where [8] appears, read: counter anion 500 mM, salt pH 5.53.

Consider `O=C(O)[C@H]1OC(O)[C@H](O)[C@@H](O)[C@@H]1O` (mixture of isomers) [Glucuronate], for which, in series [1], the “Log P (log D at pH=5.5) value quoted in text” value was below −2.3 and the “LogD (acid)- at pH = 5.5” value was −5.38.
Consider `O=S(=O)(O)CCCO` [3-HydroxyPropane-1-Sulfonate], for which, in series [1], the “LogP (acid)” value is −2.59 and the “LogD (acid)- at pH = 5.5” value is −5.39.
On to `O=C(O)[C@H](O)[C@@H](O)[C@H](O)[C@H](O)CO` [Gluconate], for which, in series [1], the “LogP (acid)” value is reported as −2.116 and the “LogD (acid)- at pH = 5.5” value is −4.83.
With `O=C(O)CO` [Glycolate], the “Encapsulation % (T0)” value in series [2] (setting [5]) came out at 41.19%. Further, the “LogP (acid)” value in series [1] is given as −1.204.
Take `CC(=O)C(=O)O` [Pyruvate]: the “Encapsulation % Short stability 5° C. After one week” value in series [2] (counter anion 500 mM, salt pH 6) turned out to be 15.38%. Besides, in series [1], the “LogP (acid)” value is −1.24 and the “LogD (acid)- at pH = 5.5” value is given as −4.04.
Take `O=S(=O)(O)O` [Sulfate]: in series [3], the “Assay loss (%) at 254 nm” value is listed as below 15% and the Additional peaks entry is reported as “no”.
In the case of `CC[C@@]1(O)C(=O)OCc2c1cc1n(c2=O)Cc2cc3c(CN(C)C)c(O)ccc3nc2-1` [topotecan], the “encapsulation efficiency (loading)” value in series [4] (topotecan HCl 1.3 mg/ml, ammonium 350 mM, methanesulfonate 350 mM counter anion) was 94%; in series [4] (topotecan HCl, 500 mM ammonium, 250 mM sulfate counter anion), 93%.
As to Ethanesulfonate, in series [1], the “LogP (acid)” value was −1.577 and the “LogD (acid)- at pH = 5.5” value is listed as −4.85.
For the molecule Lactate, the “Encapsulation % Short stability 5° C. After one week” value in series [2] (setting [6]) is listed as 48.68%. In addition, the “Encapsulation % (T0)” value in series [2] (counter anion 250 mM, salt pH 4.5) was found to be 18.37%; in series [2] (setting [7]) it was 23.42%; in series [2] (setting [6]), 101.95%.
Turning to Maleate, the “Encapsulation % (T0)” value in series [2] (setting [7]) was 36.23%; in series [2] (setting [5]) it was 22.55%.
Consider Methanesulfonate, for which, in series [3], the “Assay loss (%) at 254 nm” value is below 15% and the Additional peaks entry is reported as “no”. Further, in series [2] (setting [8]), the “Encapsulation % Short stability 5° C. After one week” value amounted to 110.66% and the “Encapsulation % (T0)” value was determined as 106.32%. In addition, in series [1], the “LogP (acid)” value was −2.087 and the “LogD (acid)- at pH = 5.5” value is listed as −5.39.
In the case of Tartarate, the “LogP (acid)” value in series [1] is given as −1.081.

The values are drawn from US20190374647A1, “STABLE LIPOSOMES FOR DRUG DELIVERY” (YISSUM RESEARCH DEVELOPMENT COMPANY OF THE HEBREW …, priority 2012, published 2019).
